Reference: ChEMBL document CHEMBL5291721, “A preclinical secondary pharmacology resource illuminates target-adverse drug reaction associations of marketed drugs” (Nat Commun, 2023)

Tests used:
[1] = target: T1, Alpha-2B adrenergic receptor (Homo sapiens, UniProt P18089)
T1 sequence (P18089 whole entry): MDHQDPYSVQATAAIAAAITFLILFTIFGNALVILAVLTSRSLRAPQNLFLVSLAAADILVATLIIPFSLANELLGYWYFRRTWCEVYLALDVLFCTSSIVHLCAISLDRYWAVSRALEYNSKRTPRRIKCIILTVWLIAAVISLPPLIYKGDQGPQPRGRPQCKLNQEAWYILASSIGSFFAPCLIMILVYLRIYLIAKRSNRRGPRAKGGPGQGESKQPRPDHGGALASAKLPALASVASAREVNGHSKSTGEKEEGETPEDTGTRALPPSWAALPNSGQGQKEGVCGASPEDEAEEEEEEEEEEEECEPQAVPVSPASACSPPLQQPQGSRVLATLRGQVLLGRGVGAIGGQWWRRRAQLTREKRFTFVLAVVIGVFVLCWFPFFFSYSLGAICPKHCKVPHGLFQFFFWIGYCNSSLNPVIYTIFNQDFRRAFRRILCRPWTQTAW

[2] = target: T2, Muscarinic acetylcholine receptor M1 (Homo sapiens, UniProt P11229); assay type: functional
T2 sequence (P11229 whole entry): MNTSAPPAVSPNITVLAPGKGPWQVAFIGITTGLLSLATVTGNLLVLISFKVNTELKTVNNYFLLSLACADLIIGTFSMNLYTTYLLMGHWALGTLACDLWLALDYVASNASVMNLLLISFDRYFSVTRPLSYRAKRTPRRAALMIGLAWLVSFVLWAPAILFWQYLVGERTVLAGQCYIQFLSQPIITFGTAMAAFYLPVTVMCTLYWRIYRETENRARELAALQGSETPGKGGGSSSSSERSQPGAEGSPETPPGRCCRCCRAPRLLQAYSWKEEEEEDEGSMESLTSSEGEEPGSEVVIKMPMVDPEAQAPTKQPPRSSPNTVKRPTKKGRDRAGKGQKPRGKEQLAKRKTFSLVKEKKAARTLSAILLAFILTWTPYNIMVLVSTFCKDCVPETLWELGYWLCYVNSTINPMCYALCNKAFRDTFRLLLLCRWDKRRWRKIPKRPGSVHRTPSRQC

[3] = target: T3, Thromboxane A2 receptor (Homo sapiens, UniProt P21731)
T3 sequence (P21731 whole entry): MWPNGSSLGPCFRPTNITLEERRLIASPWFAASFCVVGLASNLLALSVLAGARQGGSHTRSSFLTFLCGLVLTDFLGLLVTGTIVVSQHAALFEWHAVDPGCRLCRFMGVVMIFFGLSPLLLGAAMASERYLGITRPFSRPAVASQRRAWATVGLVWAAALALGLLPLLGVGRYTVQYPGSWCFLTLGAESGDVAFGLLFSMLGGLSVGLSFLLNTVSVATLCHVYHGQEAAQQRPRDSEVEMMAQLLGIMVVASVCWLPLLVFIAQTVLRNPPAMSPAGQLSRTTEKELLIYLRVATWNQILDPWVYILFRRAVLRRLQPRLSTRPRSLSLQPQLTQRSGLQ

[4] = target: Voltage-gated inwardly rectifying potassium channel KCNH2 (Homo sapiens, UniProt Q12809); assay type: functional
[5] = target: Vasopressin V2 receptor (Homo sapiens, UniProt P30518)
[6] = target: T4, Alpha-2A adrenergic receptor (Homo sapiens, UniProt P08913); assay type: functional, cell-based
T4 sequence (P08913 whole entry): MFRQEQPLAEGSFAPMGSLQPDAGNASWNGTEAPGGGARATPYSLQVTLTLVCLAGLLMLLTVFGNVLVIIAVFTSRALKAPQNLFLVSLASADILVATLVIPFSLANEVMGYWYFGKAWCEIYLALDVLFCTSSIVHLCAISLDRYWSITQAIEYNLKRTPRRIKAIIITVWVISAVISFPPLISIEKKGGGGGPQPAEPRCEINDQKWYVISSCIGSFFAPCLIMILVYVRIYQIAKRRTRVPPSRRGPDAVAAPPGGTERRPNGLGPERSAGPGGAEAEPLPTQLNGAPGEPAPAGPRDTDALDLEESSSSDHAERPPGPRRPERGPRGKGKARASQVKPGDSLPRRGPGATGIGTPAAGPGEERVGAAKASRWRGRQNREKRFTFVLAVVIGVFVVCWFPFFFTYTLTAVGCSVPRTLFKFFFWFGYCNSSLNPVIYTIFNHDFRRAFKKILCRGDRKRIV

[7] = target: Gamma-aminobutyric acid receptor subunit alpha-1 (Rattus norvegicus, UniProt P62813)
[8] = target: Cannabinoid receptor 1 (Homo sapiens, UniProt P21554); assay type: functional, cell-based
[9] = target: Kappa-type opioid receptor (Homo sapiens, UniProt P41145)
[10] = target: T5, Progesterone receptor (Homo sapiens, UniProt P06401); assay type: functional
T5 sequence (P06401 whole entry): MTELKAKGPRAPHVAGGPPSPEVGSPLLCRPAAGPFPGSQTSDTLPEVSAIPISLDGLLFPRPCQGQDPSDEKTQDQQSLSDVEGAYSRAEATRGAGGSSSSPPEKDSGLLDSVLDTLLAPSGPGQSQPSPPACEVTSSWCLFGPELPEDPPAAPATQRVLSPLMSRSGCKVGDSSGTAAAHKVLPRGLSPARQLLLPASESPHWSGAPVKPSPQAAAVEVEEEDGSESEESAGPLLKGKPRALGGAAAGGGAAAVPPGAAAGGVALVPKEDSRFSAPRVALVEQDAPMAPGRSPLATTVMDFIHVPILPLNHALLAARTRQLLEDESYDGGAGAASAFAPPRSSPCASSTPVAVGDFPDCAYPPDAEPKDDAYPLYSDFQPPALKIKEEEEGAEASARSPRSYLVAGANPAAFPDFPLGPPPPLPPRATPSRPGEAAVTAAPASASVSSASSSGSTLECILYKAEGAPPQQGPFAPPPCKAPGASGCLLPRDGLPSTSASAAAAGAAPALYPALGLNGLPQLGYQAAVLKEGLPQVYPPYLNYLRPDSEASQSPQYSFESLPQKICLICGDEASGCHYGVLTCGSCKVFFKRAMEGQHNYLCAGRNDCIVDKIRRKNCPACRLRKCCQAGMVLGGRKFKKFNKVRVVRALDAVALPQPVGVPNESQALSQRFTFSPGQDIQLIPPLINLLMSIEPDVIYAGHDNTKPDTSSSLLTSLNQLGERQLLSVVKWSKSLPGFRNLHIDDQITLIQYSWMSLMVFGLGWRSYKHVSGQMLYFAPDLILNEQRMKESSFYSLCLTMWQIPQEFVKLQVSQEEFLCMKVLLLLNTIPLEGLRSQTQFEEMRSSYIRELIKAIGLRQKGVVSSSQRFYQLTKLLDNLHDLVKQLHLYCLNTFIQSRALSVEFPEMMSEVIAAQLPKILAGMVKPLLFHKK
Also: assay procedure not described here.

Cannabinoid receptor 1, sequence (P21554 whole entry): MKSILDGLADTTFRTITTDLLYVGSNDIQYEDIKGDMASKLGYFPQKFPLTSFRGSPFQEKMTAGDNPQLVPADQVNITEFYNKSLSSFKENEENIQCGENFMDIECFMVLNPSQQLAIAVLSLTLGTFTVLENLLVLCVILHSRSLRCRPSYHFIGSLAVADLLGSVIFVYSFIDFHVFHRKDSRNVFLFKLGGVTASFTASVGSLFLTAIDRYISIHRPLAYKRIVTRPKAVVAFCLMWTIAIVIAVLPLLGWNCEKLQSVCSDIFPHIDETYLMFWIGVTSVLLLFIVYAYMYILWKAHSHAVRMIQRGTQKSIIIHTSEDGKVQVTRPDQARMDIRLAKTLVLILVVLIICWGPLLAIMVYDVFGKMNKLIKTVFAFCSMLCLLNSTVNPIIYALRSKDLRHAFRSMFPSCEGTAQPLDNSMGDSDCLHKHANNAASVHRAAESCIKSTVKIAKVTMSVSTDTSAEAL
Voltage-gated inwardly rectifying potassium channel KCNH2, sequence (Q12809 whole entry): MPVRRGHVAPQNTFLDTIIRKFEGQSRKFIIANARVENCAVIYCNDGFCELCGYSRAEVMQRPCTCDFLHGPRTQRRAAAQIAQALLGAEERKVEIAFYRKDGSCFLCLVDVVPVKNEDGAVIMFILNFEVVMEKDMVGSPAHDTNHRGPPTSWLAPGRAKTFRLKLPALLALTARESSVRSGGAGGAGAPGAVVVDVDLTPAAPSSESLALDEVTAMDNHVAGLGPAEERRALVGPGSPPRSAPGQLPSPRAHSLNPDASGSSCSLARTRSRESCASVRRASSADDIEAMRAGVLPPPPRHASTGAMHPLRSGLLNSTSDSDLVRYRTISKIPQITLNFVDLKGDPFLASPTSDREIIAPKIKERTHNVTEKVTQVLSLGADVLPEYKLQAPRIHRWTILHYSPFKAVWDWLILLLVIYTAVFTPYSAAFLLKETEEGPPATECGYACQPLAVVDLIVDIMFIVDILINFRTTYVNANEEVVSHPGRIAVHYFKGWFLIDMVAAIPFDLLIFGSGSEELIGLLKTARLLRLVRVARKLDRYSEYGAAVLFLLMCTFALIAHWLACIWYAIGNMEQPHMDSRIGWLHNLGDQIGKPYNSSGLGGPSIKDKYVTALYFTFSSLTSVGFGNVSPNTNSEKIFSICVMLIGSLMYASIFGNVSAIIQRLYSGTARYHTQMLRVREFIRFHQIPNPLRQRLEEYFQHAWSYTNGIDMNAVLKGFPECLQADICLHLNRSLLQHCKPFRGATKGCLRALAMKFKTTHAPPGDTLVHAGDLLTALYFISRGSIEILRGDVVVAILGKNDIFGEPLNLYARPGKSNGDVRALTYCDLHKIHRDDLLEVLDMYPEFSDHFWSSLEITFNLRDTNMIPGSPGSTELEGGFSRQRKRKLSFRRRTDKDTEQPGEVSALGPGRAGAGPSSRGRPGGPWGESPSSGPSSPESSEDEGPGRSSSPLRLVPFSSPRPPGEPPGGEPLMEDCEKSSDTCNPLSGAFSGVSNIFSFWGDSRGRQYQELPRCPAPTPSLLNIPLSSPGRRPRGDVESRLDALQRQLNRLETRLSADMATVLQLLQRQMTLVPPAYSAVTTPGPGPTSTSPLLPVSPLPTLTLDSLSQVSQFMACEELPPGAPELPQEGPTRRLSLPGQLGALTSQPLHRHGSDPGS
Gamma-aminobutyric acid receptor subunit alpha-1, sequence (P62813 whole entry): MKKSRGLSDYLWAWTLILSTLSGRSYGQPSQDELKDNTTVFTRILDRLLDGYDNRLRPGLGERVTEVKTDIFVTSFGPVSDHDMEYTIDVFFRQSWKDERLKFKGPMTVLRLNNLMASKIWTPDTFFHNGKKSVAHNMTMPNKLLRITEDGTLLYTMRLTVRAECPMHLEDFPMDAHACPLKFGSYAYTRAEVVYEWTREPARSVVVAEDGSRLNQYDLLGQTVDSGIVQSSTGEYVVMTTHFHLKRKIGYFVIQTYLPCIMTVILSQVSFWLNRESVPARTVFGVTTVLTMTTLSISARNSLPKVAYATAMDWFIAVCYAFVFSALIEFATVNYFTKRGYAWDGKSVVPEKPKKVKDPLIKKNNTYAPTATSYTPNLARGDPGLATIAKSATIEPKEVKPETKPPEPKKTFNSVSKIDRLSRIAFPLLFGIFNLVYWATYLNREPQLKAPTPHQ
Kappa-type opioid receptor, sequence (P41145 whole entry): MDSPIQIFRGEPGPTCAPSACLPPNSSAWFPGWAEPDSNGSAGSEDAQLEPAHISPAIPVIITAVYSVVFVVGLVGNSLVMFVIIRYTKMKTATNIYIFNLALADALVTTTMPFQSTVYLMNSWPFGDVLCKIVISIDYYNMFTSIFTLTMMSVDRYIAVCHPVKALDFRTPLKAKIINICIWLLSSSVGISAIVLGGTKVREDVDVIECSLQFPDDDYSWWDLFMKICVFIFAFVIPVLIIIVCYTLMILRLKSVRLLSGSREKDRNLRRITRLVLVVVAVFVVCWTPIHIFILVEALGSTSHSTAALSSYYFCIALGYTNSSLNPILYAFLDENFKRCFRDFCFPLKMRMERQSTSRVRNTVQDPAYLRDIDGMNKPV

| Compound | AC50 [1] | AC50 [2] | AC50 [3] | AC50 ([4]; read-out: AC50) | AC50 [5] | AC50 [6] | AC50 [7] | AC50 [8] | AC50 [9] | AC50 [10] | AC50 ([4]; human, cellular components) |
| --- | --- | --- | --- | --- | --- | --- | --- | --- | --- | --- | --- |
| COc1ccc2c3c1O[C@H]1C(=O)CC[C@H]4[C@@H](C2)N(C)CC[C@]314 [HYDROCODONE] | > 10 µM | > 10 µM | > 30 µM | > 30 µM | > 30 µM | > 10 µM | > 10 µM | – | – | – | – |
| CN1C(=O)CN=C(c2ccccc2F)c2cc([N+](=O)[O-])ccc21 [FLUNITRAZEPAM] | > 10 µM | > 10 µM | > 30 µM | > 30 µM | > 30 µM | > 10 µM | > 10 µM | > 30 µM | 6.39 µM | – | – |
| CCOC(=O)O[C@]1(C(=O)COC(=O)CC)CC[C@H]2[C@@H]3CCC4=CC(=O)C=C[C@]4(C)[C@H]3[C@@H](O)C[C@@]21C [PREDNICARBATE] | > 10 µM | > 10 µM | > 10 µM | > 30 µM | > 10 µM | > 10 µM | > 10 µM | – | > 10 µM | 1.3 µM | – |
| CC1NCCOC1c1ccccc1 (stereo unspecified) [PHENMETRAZINE] | > 10 µM | > 10 µM | > 30 µM | > 30 µM | > 30 µM | > 10 µM | > 10 µM | > 30 µM | > 10 µM | – | – |
| TEPRENONE | > 10 µM | > 10 µM | > 30 µM | – | > 30 µM | > 10 µM | > 10 µM | > 30 µM | 17 µM | – | > 30 µM |
| SITOSTEROLS | > 30 µM | > 30 µM | > 30 µM | – | > 30 µM | > 30 µM | > 30 µM | > 30 µM | > 30 µM | – | > 30 µM |
| CCC(NC(C)C)C(O)c1ccc(O)c(O)c1 (stereo unspecified) [ISOETHARINE] | > 30 µM | > 30 µM | > 30 µM | > 30 µM | > 30 µM | > 30 µM | > 30 µM | – | 8.95 µM | > 30 µM | – |
| CC(C)(N)Cc1ccccc1 [PHENTERMINE] | > 10 µM | > 10 µM | > 30 µM | > 30 µM | > 30 µM | > 10 µM | > 10 µM | > 30 µM | > 10 µM | – | – |
| CCCCCCOC(=O)NC(=N)c1ccc(NCc2nc3cc(C(=O)N(CCC(=O)OCC)c4ccccn4)ccc3n2C)cc1 [DABIGATRAN ETEXILATE] | > 30 µM | > 30 µM | – | – | > 30 µM | > 30 µM | – | – | > 30 µM | > 30 µM | – |
